As usually defined, the inhibition is the change of the read-out against control, counted positive when it falls. What is called pIC50 is the negative decadic logarithm of the IC50, by convention in mol/L. Higher therefore signals a low IC50.

The experiment has as its target T1, human NOX4 (Homo sapiens, UniProt Q9NPH5).
T1 construct: expressed in transfected cells; membrane fraction used
T1 sequence (Q9NPH5 1-578): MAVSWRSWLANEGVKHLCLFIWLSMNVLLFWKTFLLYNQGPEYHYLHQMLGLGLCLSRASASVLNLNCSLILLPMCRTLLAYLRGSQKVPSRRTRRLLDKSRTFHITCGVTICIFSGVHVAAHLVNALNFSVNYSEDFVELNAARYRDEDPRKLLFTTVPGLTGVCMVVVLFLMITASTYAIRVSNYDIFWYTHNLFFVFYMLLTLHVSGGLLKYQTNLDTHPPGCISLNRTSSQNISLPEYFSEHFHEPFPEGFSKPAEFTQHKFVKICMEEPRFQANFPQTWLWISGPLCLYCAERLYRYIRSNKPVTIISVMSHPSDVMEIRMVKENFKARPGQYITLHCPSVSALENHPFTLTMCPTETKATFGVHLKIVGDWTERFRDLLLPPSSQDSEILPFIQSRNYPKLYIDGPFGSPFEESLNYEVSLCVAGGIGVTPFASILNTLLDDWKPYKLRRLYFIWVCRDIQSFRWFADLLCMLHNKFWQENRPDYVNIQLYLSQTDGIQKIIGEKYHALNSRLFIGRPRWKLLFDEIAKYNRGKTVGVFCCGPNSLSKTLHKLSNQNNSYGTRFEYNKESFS
T1 sequence (P13498 1-195 partner): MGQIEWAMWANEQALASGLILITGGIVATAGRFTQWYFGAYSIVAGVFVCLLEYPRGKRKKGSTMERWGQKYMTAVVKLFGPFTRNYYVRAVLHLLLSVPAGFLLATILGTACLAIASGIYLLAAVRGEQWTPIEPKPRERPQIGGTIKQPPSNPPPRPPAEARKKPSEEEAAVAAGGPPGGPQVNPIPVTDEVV
The experiment in a line: Cell free membrane based in vitro NOX4 assay: H2O2 production by membranes expressing human NOX4, measured with Amplex Red. It is filed as biochemical. Conditions: for inhibition at 1 µM: 1.0 μM compound, read-out: Percentage inhibition at 1.0 μM; for inhibition at 10 µM: 10.0 μM compound, read-out: Percentage inhibition at 10.0 μM; for pIC50: class symbols. In short, it runs like this: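 IC50 came from concentration-response curves fitted as % of the inhibitor-free maximum. H2O2 formation was monitored for 10 min via Amplex Red/HRP fluorescence (544/590 nm) after NADPH start. Membranes from a stable hNOX4/HEK line had 20 min exposure to inhibitor beforehand at pH 7.4.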

pIC50: −log10 of the molar value.

`Cc1nn(CCN2CCNCC2)c2[nH]c(-c3ccccc3Cl)c(O)c(=O)c12` [Example 177, 6-(2-Chlorophenyl)-5-hydroxy-3-methyl-1-(2-(piperazin-1-yl)ethyl)-1H-pyrazolo[3,4-b]pyridin-4(7H)-one]: the inhibition at 1 µM came to 68.6%, the inhibition at 10 µM amounted to 50.1% and the pIC50 was < 6.82.

Regarding `Cc1nn(CCN2CCN(C)CC2)c2[nH]c(-c3cccc(C(F)(F)F)c3F)c(O)c(=O)c12` [Example 178, 6-(2-fluoro-3-(trifluoromethyl)phenyl)-5-hydroxy-3-methyl-1-(2-(4-methylpiperazin-1-yl)ethyl)-1H-pyrazolo[3,4-b]pyridin-4(7H)-one], the inhibition at 1 µM was 89% and the pIC50 is < 6.82.

Turning to `CCc1nn(CCN2CCN(C)CC2)c2[nH]c(-c3cccc(C(F)(F)F)c3F)c(O)c(=O)c12` [Example 179, 3-Ethyl-6-(2-fluoro-3-(trifluoromethyl)phenyl)-5-hydroxy-1-(2-(4-methylpiperazin-1-yl)ethyl)-1H-pyrazolo[3,4-b]pyridin-4(7H)-one], the inhibition at 1 µM was 92.3% and the pIC50 is 6.82 to 7.00.

`CCc1nn(CCC(C)C)c2[nH]c(-c3c(F)cccc3F)c(O)c(=O)c12` [Example 180, 6-(2,6-Difluorophenyl)-3-ethyl-5-hydroxy-1-isopentyl-1H-pyrazolo[3,4-b]pyridin-4(7H)-one]: the inhibition at 1 µM was 100%, the inhibition at 10 µM turned out to be 100% and the negative-log IC50 (pIC50) is > 7.30.

For `CCc1nn(CCC(C)C)c2[nH]c(-c3ccccc3Cl)c(O)c(=O)c12` [Example 181, 6-(2-Chlorophenyl)-3-ethyl-5-hydroxy-1-isopentyl-1H-pyrazolo[3,4-b]pyridin-4(7H)-one], the inhibition at 1 µM is 100%, the inhibition at 10 µM was 100% and the pIC50 was 7.00 to 7.30.

On to `CCCn1nc(CO)c2c(=O)c(O)c(-c3c(F)cccc3F)[nH]c21` [Example 182, 6-(2,6-Difluorophenyl)-5-hydroxy-3-(hydroxymethyl)-1-propyl-1H-pyrazolo[3,4-b]pyridin-4(7H)-one], for which the inhibition at 1 µM amounted to 100%, the inhibition at 10 µM was 100% and the pIC50 is 7.00 to 7.30.

`O=c1c(O)c(-c2c(F)cccc2F)[nH]c2c1c(CO)nn2C1CC1` [Example 183, 1-Cyclopropyl-6-(2,6-difluorophenyl)-5-hydroxy-3-(hydroxymethyl)-1H-pyrazolo[3,4-b]pyridin-4(7H)-one]: the inhibition at 1 µM came out at 84.2%, the inhibition at 10 µM was 97.1% and the pIC50 was 6.82 to 7.00.

Regarding `CCc1nn(CCN2CCOC(C)(C)C2=O)c2[nH]c(-c3c(F)cccc3F)c(O)c(=O)c12` [Example 184, 4-(2-(6-(2,6-Difluorophenyl)-3-ethyl-5-hydroxy-4-oxo-4,7-dihydro-1H-pyrazolo[3,4-b]pyridin-1-yl)ethyl)-2,2-dimethylmorpholin-3-one], the inhibition at 1 µM came out at 78.8%, the inhibition at 10 µM amounted to 81.6% and the pIC50 is < 6.82.

Turning to `Cn1nc(C2CCN(S(C)(=O)=O)CC2)c2c(=O)c(O)c(-c3c(F)cccc3F)[nH]c21` [Example 185, 6-(2,6-Difluorophenyl)-5-hydroxy-1-methyl-3-(1-(methylsulfonyl)piperidin-4-yl)-1H-pyrazolo[3,4-b]pyridin-4(7H)-one], the inhibition at 1 µM is 80.1%, the inhibition at 10 µM came to 78.2% and the negative logarithm of the IC50 (pIC50) is 7.00 to 7.30.

For `CS(=O)(=O)N1CCC(c2nn(C3CC3)c3[nH]c(-c4c(F)cccc4F)c(O)c(=O)c23)CC1` [Example 186, 1-Cyclopropyl-6-(2,6-difluorophenyl)-5-hydroxy-3-(1-(methylsulfonyl)piperidin-4-yl)-1H-pyrazolo[3,4-b]pyridin-4(7H)-one], the inhibition at 1 µM worked out at 71.9%, the inhibition at 10 µM is 81.2% and the pIC50 was < 6.82.

On to `CCc1nn(C)c2[nH]c(-c3cnc(-c4ccc(F)cc4F)s3)c(O)c(=O)c12` [Example 187, 6-(2-(2,4-Difluorophenyl)thiazol-5-yl)-3-ethyl-5-hydroxy-1-methyl-1H-pyrazolo[3,4-b]pyridin-4(7H)-one], for which the inhibition at 1 µM was 77%, the inhibition at 10 µM amounted to 77.8% and the pIC50 is 6.82 to 7.00.

As for `Cn1nc(CO)c2c(=O)c(O)c(-c3c(F)cccc3F)[nH]c21` [Example 188, 6-(2,6-Difluorophenyl)-5-hydroxy-3-(hydroxymethyl)-1-methyl-1H-pyrazolo[3,4-b]pyridin-4(7H)-one], the inhibition at 1 µM turned out to be 96.5%, the inhibition at 10 µM is 100% and the pIC50 is 6.82 to 7.00.

`Cn1nc(C2CCOCC2)c2c(=O)c(O)c(-c3c(F)cccc3F)[nH]c21` [Example 189, 6-(2,6-Difluorophenyl)-5-hydroxy-1-methyl-3-(tetrahydro-2H-pyran-4-yl)-1H-pyrazolo[3,4-b]pyridin-4(7H)-one]: the inhibition at 1 µM was 99.2%, the inhibition at 10 µM is 98.6% and the pIC50 was > 7.30.

For the molecule `O=c1c(O)c(-c2c(F)cccc2F)[nH]c2c1c(C1CCOCC1)nn2C1CC1` [Example 190, 1-Cyclopropyl-6-(2,6-difluorophenyl)-5-hydroxy-3-(tetrahydro-2H-pyran-4-yl)-1H-pyrazolo[3,4-b]pyridin-4(7H)-one], the inhibition at 1 µM turned out to be 93.1%, the inhibition at 10 µM came out at 100% and the pIC50 was > 7.30.

As to `Cn1nc(CN2CCOCC2)c2c(=O)c(O)c(-c3c(F)cccc3F)[nH]c21` [Example 191, 6-(2,6-difluorophenyl)-5-hydroxy-1-methyl-3-(morpholinomethyl)-1H-pyrazolo[3,4-b]pyridin-4(7H)-one], the inhibition at 1 µM turned out to be 91.2%, the inhibition at 10 µM was found to be 97.8% and the negative-log IC50 (pIC50) is 7.00 to 7.30.

With `CC(C)N1CCN(Cc2nn(C)c3[nH]c(-c4c(F)cccc4F)c(O)c(=O)c23)CC1` [Example 192, 6-(2,6-Difluorophenyl)-5-hydroxy-3-((4-isopropylpiperazin-1-yl)methyl)-1-methyl-1H-pyraazolo[3,4-b]pyridin-4(7H)-one], the inhibition at 1 µM came to 90.6%, the inhibition at 10 µM amounted to 95.3% and the pIC50 is 7.00 to 7.30.

On to `Cn1nc(C2CCOCC2)c2c(=O)c(O)c(-c3ccccc3Cl)[nH]c21` [Example 193, 6-(2-Chlorophenyl)-5-hydroxy-1-methyl-3-(tetrahydro-2H-pyran-4-yl)-1H-pyrazolo[3,4-b]pyridin-4(7H)-one], for which the inhibition at 1 µM is 84.7%, the inhibition at 10 µM came to 75.4% and the pIC50 was > 7.30.

For the molecule `Cn1nc(C2CCN(S(C)(=O)=O)CC2)c2c(=O)c(O)c(-c3ccccc3Cl)[nH]c21` [Example 194, 6-(2-chlorophenyl)-5-hydroxy-1-methyl-3-(1-(methylsulfonyl)piperidin-4-yl)-1H-pyrazolo[3,4-b]pyridin-4(7H)-one], the inhibition at 1 µM worked out at 98.3%, the inhibition at 10 µM is 96% and the pIC50 is 7.00 to 7.30.

In the case of `Cn1nc(CN2CC[C@H](F)C2)c2c(=O)c(O)c(-c3c(F)cccc3F)[nH]c21` [Example 195, (S)-6-(2,6-Difluorophenyl)-3-((3-fluoropyrrolidin-1-yl)methyl)-5-hydroxy-1-methyl-1H-pyrazolo[3,4-b]pyridin-4(7H)-one], the inhibition at 1 µM turned out to be 97.7%, the inhibition at 10 µM was determined as 100% and the pIC50 is 6.82 to 7.00.

These data come from patent US20200247800A1, “SUBSTITUTED BICYCLIC HETEROCYCLIC COMPOUNDS AS NADPH OXIDASE INHIBITORS” (Glenmark Pharmaceuticals S.A., priority 2017, published 2020).
